Tests used:
Type in all cases: cell-based, human
8226 cells = assay: Viability of 8226 myeloma cells (MTT); details: 100 nM, cells lack FGFR3 expression
Description: (§1) FIG. 2 is a graph showing the viability of human myeloma cell lines in the presence of PRO-001. Viability is reported as the ratio between the optical density (OD) in the presence of FGF±inhibitor and the OD in the absence of FGF.
(§2) Non-transformed rat chondrocyte cell line expressing PGFR3 in an inducible manner (RCJ-FGFR3) has been described previously (Rauchenberger R. et al. J. Biol. Chem. 2003; 278:38194-205). Cells were maintained in α-Minimum Essential Media supplemented with 15% fetal calf serum (FCS), 2 mM L-Glutamine, 100 U/ml penicillin, 100 μg/ml streptomycin, 600 μg/ml G418 (Gibco BRL, Ontario, Canada), 2 μg/ml Tetracyclin (Sigma, Ontario, Canada), and 50 μg/ml HygromycinB (Gibco BRL). […]
(§3) Cell viability was assessed by 3-(4,5-dimethylthiazol)-2,5-diphenyl tetrazolium (MTT) or (2,3-bis(2-methoxy-4-nitro-5-sulphophenyl)-5-[(phenylamino) carbonyl]-2H-tetrazolium hydroxide (XTT) dye absorbance where indicated. Cells were seeded in 96-well plates at a density of 20,000 (FDCP-1 cells), 5,000 (B9 cells) or 25,000 cells (MM cell lines) per well in culture medium. Cells were incubated in the absence or presence of one of the following cytokines: 10 ng/ml FGF9 and 5 μg/ml heparin, 1% murine IL-6, 50 ng/ml IGF-1 or 50 ng/ml human IL-6 where indicated and increasing concentrations of PRO-001, control antibody (purified human Fab) or 100 nM PD173074. […]

H929 cells = assay: Viability of H929 myeloma cells (MTT); details: 100 nM
Description: as §1, §2, §3

UTMC2 cells = assay: Viability of stimulated UTMC2 myeloma cells (MTT); details: 100 nM; MTT
Method: as §1
FIG. 4 is a graph showing viability of UTMC2 cells treated with FGF, IL6 or IGF-1. The dark bars represent stimulated cells treated with a control antibody; the dotted bar represents stimulated cells treated with 5 μg/ml PRO-001; the square-filled bar represents stimulated cells treated with 100 nM PD173074.
Non-transformed rat chondrocyte cell line expressing PGFR3 in an inducible manner (RCJ-FGFR3) has been described previously (Rauchenberger R. et al. J. Biol. Chem. 2003; 278:38194-205). […]
as §3

## CCN(CC)CCCCNc1ncc2cc(-c3cc(OC)cc(OC)c3)c(NC(=O)NC(C)(C)C)nc2n1 [PD173074, reference compound]
8226 cells
  Cell growth of 8226 cells in the presence of FGF: resistant
H929 cells
  Cell growth of H929 cells in the presence of FGF: resistant
UTMC2 cells
  Inhibition of FGF-stimulated growth of UTMC2: Inhibition of FGF-stimulated growth of UTMC2 by PRO-001 was comparable to that induced by PD173074

From patent US20090175866A1, “TREATMENT OF B-CELL MALIGNANCIES” (priority 2004, published 2009)
